The text below walks through data of patent US20230127839A1, “COMPOUNDS AND COMPOSITIONS FOR TREATING CONDITIONS ASSOCIATED WITH STING ACTIVITY” (IFM Due, Inc., priority 2019, published 2023).

This experiment deals with T1, hSTING (Homo sapiens, UniProt Q86WV6, G230A/H232R/R293Q/R71H).
T1 construct: host or cells: THP1-Dual KO-IFNAR2 cells
The experiment is described as follows: STING reporter assay (luciferase) in THP1-Dual KO-IFNAR2 cells stimulated with 2'3'cGAMP. The following applies: 2'3'cGAMP 15 μM, 24 h, luciferase reporter activity. The experiment is classed as cell-based. The procedure, abridged:
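THP1-Dual KO-IFNAR2 cells (2×10E6 cells/mL) exposed to compounds at 0.0017-100 μM final, then stimulated with 2′3′cGAMP (15 μM final) delivered by Lipofectamine 2000 transfection. After 24 h at 37° C, secreted luciferase in supernatant read by QUANTI-Luc luminescence; EC50 calculated.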
For orientation: A reporter such as luciferase makes a cellular process visible.

T1 sequence (Q86WV6 whole entry R71H/G230A/H232R/R293Q): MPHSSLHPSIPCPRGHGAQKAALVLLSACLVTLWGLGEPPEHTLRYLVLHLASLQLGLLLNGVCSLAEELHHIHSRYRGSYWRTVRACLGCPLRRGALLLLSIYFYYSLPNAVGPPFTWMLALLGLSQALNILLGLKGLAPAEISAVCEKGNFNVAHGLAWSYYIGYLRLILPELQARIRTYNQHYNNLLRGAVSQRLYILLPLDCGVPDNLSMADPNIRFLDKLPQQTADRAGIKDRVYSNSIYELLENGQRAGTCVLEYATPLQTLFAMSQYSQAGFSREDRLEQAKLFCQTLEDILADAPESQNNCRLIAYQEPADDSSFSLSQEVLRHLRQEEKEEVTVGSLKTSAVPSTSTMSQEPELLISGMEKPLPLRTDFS

For the compound `O=C(Nc1ccnc(C2CCC(F)(F)CC2)c1)Nc1c[nH]c2ccccc12` [Compound 254, 1-(2-(4,4-difluorocyclohexyl)pyridin-4-yl)-3-(1H-indol-3-yl)urea], the EC50 was in the range of 200 to 1000 nM.
As for `O=C(Nc1ccc(C2CC(F)(F)C2)c(F)c1)Nc1c[nH]c2ccc(Cl)cc12` [Compound 139, 1-(5-chloro-1H-indol-3-yl)-3-(4-(3,3-difluorocyclobutyl)-3-fluorophenyl)urea], the figure is 40 to 200 nM; as for `O=C(Nc1cnc(Cl)c(C2CCC(F)(F)CC2)c1)Nc1c[nH]c2ccc(Cl)cc12` [Compound 231, 1-(5-chloro-1H-indol-3-yl)-3-(6-chloro-5-(4,4-difluorocyclohexyl)pyridin-3-yl)urea], 40 to 200 nM.
As for `C[C@@H]1CN(c2ncc(NC(=O)Nc3c[nH]c4ccc(Cl)cc34)cc2Cl)C[C@@H](C)N1` [Compound 291, 1-(5-chloro-1H-indol-3-yl)-3-(5-chloro-6-((3R,5R)-3,5-dimethylpiperazin-1-yl)pyridin-3-yl)urea], the figure is 1000 to 5000 nM; as for `O=C(Nc1cnc(N2CCC(F)(F)CC2)nc1)Nc1c[nH]c2cc(F)c(F)cc12` [Compound 179, 1-(5,6-difluoro-1H-indol-3-yl)-3-(2-(4,4-difluoropiperidin-1-yl)pyrimidin-5-yl)urea], 200 to 1000 nM.
As for `O=C(Nc1cnc(N2CCN(CC3CC3)CC2)c(Cl)c1)Nc1c[nH]c2ccc(Cl)cc12` [Compound 260, 1-(5-chloro-1H-indol-3-yl)-3-(5-chloro-6-(4-(cyclopropylmethyl)piperazin-1-yl)pyridin-3-yl)urea], the figure is 40 to 200 nM; as for `Cc1nc(NC(=O)Nc2c[nH]c3cc(F)c(F)cc23)cnc1N1CCC(F)(F)CC1` [Compound 175, 1-(5,6-difluoro-1H-indol-3-yl)-3-(5-(4,4-difluoropiperidin-1-yl)-6-methylpyrazin-2-yl)urea], 200 to 1000 nM.
For the compound `C[C@H]1CN(c2ncc(NC(=O)Nc3c[nH]c4cc(F)c(F)cc34)cc2Cl)C[C@H](C)O1` [Compound 147, 1-(5-chloro-6-((2S,6S)-2,6-dimethylmorpholino)pyridin-3-yl)-3-(5,6-difluoro-1H-indol-3-yl)urea], the EC50 fell in the range of 40 to 200 nM.
`O=C(Nc1ccc(N2CCC(F)(F)CC2)nc1)Nc1c[nH]c2cc(Cl)c(Cl)cc12` [Compound 128, 1-(5,6-dichloro-1H-indol-3-yl)-3-(6-(4,4-difluoropiperidin-1-yl)pyridin-3-yl)urea] yielded a half-maximal effective concentration (EC50) of 1000 to 5000 nM.

By EC50 is commonly meant the concentration at which the effect is half-maximal.
